In paper PMC9867241, “Antioxidant and Cytotoxic Activity of New Polyphenolic Derivatives of Quinazolin-4(3H)-one: Synthesis and In Vitro Activities Evaluation” (Pharmaceutics, 2022):
Values after ≈ are worked out from the molar mass of the structure shown.

How the values were obtained:
[1] = Cupric reducing antioxidant capacity (CUPRAC) assay; set-up: concentration or dose not given beside the values; conditions: for CUPRAC, % of Activity of Trolox: relative to Trolox; for CUPRAC, % of Activity of Ascorbic Acid: relative to ascorbic acid
Description: The ability to donate electrons was evaluated for the compounds 5a–d and 6a–d, by the CUPRAC (CUPric reducing antioxidant capacity) method. The absorbance was measured against a blank sample, at λ = 450 nm. The assay was performed based on our group’s previous report by the adaptation of the initial report of Alam et al., Özyürek et al. and Apak et al.. With the use of Equation (4), the cupric ion reduction by compounds 5a–d and 6a–d was expressed as a percentage of the reference compound activity.
The Cu^2+ ions are reduced to Cu^+ ions by the electron-donating compounds. The Cu^+ ions are chelated by neocuproine, giving a colored complex with absorbance proportional to the quantity of Cu^+ ions that resulted.

[2] = system: LNCaP (prostate carcinoma) cells; assay: Cytotoxicity, Alamar blue assay, LNCaP cells; format: cell-based; conditions: Homo sapiens, 24 h exposure
Source text: Normal human foreskin (BJ) fibroblasts and two types of cancer cells, namely A549 (lung adenocarcinoma) and LNCaP (prostate carcinoma) purchased from American Type Culture Collection (Manassas, VA, USA), were used in the experiments. Each cell line was maintained in a different culture medium, depending on the metabolic necessities of the cells. BJ cells were maintained in Dulbecco’s modified Eagle’s medium (DMEM) with low glucose. A549 cells were maintained in DMEM with high glucose […], while LNCaP cells were grown in Roswell Park Memorial Institute (RPMI) 1640 medium with high glucose (5 g/L). All media used were supplemented with 10% fetal bovine serum (FBS) and were refreshed every two days. Cells were used in experiments or subcultured when they reached 70–80% confluence.
In 100 µL in 96-well plates, a number of 30,000 LNCaP cells, 15,000 A549 cells, and 7500 normal (BJ) cells were seeded. Because the cells have different sizes and volumes, the purpose of the different seedings was to achieve a confluency of 70–80% after 24 h. All types of cells were further exposed to the synthesized compounds (5a–d and 6a–d) for 24 h, at a concentration ranging from 12.5 to 100 µg/mL. Post-exposure, the media were removed, and the cells were washed with phosphate buffer saline (PBS). Their viability was evaluated using Alamar blue (AB) assay as previously described. Briefly, the cells were incubated with a 200 µM resazurin solution for 4 h. Using a Synergy 2 multi-mode microplate reader, we measured the fluorescence. The measurement was performed at λexcitation = 530/25 nm; λemission = 590/35 nm. We conducted the experiments using three biological replicates, each one including 6 technical replicates. As negative controls (NC), cells exposed to culture medium containing 0.2% DMSO were used. Compared to the NC (100%), the results were expressed as relative values. We used IC50 values for the potency evaluation, and calculated them for each cell line, using the dose-effect curves obtained by fitting the experimental data with a 4-parameter logistic curve.
Mean values ± standard deviation (SD) values of at least three biological replicates were used to calculate experimental data. One-way analysis of variance (ANOVA) with a post hoc Holm–Sidak test was used to statistically examine the data. Using SigmaPlot 11.0 software (Systat, Software Inc., Chicago, IL, USA), we performed the graphical display and data analysis. From a statistical point of view, the results were considered different, at values of p < 0.05.

[3] = Fe^2+ chelation assay (ferrozine competition)
Description: In the protocol used for evaluating the Fe^2+ chelating ability of the compounds, the absorbances of the solutions were determined at λ = 562 nm, against a blank sample. The method was adapted from the initial report of Benzie and Strain et al., which was previously reported by our group. Using Equation (5), we calculated the iron chelation capacities of the 5a–d and 6a–d compounds:(5) iron chelation (%)=control absorbance−sample absorbance/control absorbance×100
The chelating capacity of the tested compounds of Fe^2+ was evaluated based on their competition for Fe^2+ with ferrozine.

[4] = DPPH˙ radical scavenging assay
Description: The stock solutions (1 mg/mL) of the tested compounds and the controls were obtained, by dissolving the substances in dimethyl sulfoxide (DMSO). Using Jasco V-530, an UV-VIS spectrophotometer (Jasco International Co., Ltd., Tokyo, Japan), we performed the colorimetric determinations in low-volume single-use 10 mm width cuvettes.
The assays were performed in triplicate and the results are presented as averages for each assay.
The DPPH˙ radical scavenging assay is based on the transfer of one hydrogen from the analyzed compound to the violet stable free radical DPPH˙ (2,2-diphenyl-1-picrylhydrazyl), as we convert it into a yellow compound. The absorbance of the reagent mixed with samples presented inversely proportional values to the amount of DPPH˙ neutralized. The absorbance of the reagent was measured at λ = 517 nm, according to our previous reports. The assay was made in the presence of various concentrations of samples. The used protocol is based on the report of Brand-Williams et al..

[5] = Cu^2+ chelation assay (murexide competition)
Source text: With murexide as a chromophoric chelator, we performed the protocol followed for the evaluation of Cu^2+ chelating activities of the compounds using an adaptation of the method presented by Cesari et al. and Wu et al.. Using Equation (6), we calculated the copper chelation capacities of the 5a–d and 6a–d compounds:(6) copper chelation (%)=(A485/A520)control−(A485/A520)sample/(A485/A520)control×100
The evaluation of the Cu^2+ chelation activity of compounds was made based on the competition for Cu^2+ with murexide. The chelating activity of compounds for the cupric ions found in the current assay is significant for the pyrogallol derivatives, being quite close to EDTA-Na2.

Structure (SMILES): C=CCn1c(SCC(=O)NN=Cc2ccc(O)c(O)c2O)nc2ccccc2c1=O [Compound 5a, 2-((3-Allyl-4-oxo-3,4-dihydroquinazolin-2-yl)thio)-N’-(2,3,4-trihydroxybenzylidene)acetohydrazide]
- CUPRAC, % of Activity of Trolox [1]: 126.56%
- CUPRAC, % of Activity of Ascorbic Acid [1]: 132.79%
- IC50 [2]: 45.6 µg/mL
- Ferrous ions Chelation Capacity (%) ([3]; 17.70 µg/mL): - (- represents less than 5%)
- Ferrous ions Chelation Capacity (%) ([3]; 20.59 µg/mL): - (- represents less than 5%)
- Ferrous ions Chelation Capacity (%) ([3]; 29.41 µg/mL): - (- represents less than 5%)
- Ferrous ions Chelation Capacity (%) ([3]; 44.11 µg/mL): - (- represents less than 5%)
- Ferrous ions Chelation Capacity (%) ([3]; 58.82 µg/mL): 18.44%
- Ferrous ions Chelation Capacity (%) ([3]; 88.23 µg/mL): 34.12%
- Ferrous ions Chelation Capacity (%) ([3]; 117.64 µg/mL): 45.93%
- Ferrous ions Chelation Capacity (%) ([3]; 257.46 µg/mL): 71.76%
- Ferrous ions Chelation Capacity (%) ([3]; 343.28 µg/mL): 86.30%
- IC50 [4]: 6.47 µM
- IC50 (DPPH˙ scavenging) [4]: 2.76 µg/mL (≈ 6.47 µM)
- % of DPPH˙ Scavenging ([4]; 1.25 µg/mL): 41.09%
- % of DPPH˙ Scavenging ([4]; 2.5 µg/mL): 49.94%
- % of DPPH˙ Scavenging ([4]; 3.75 µg/mL): 54.93%
- % of DPPH˙ Scavenging ([4]; 5 µg/mL): 62.06%
- % of DPPH˙ Scavenging ([4]; 7.5 µg/mL): 73.89%
- % of DPPH˙ Scavenging ([4]; 10 µg/mL): + (+ represents more than 95%)
- % of DPPH˙ Scavenging ([4]; 12.5 µg/mL): + (+ represents more than 95%)
- % of DPPH˙ Scavenging ([4]; 15 µg/mL): + (+ represents more than 95%)
- Cupric ions Chelation Capacity (%) ([5]; 3.36 µg/mL): 20.33%
- Cupric ions Chelation Capacity (%) ([5]; 8.40 µg/mL): 30.76%
- Cupric ions Chelation Capacity (%) ([5]; 16.80 µg/mL): 40.29%

Structure (SMILES): O=C(CSc1nc2ccccc2c(=O)n1Cc1ccccc1)NN=Cc1ccc(O)c(O)c1O [Compound 5b, 2-((3-Benzyl-4-oxo-3,4-dihydroquinazolin-2-yl)thio)-N’-(2,3,4-trihydroxybenzylidene)acetohydrazide]
- CUPRAC, % of Activity of Trolox [1]: 92.75%
- CUPRAC, % of Activity of Ascorbic Acid [1]: 97.31%
- IC50 [2]: 70 µg/mL
- Ferrous ions Chelation Capacity (%) ([3]; 17.70 µg/mL): - (- represents less than 5%)
- Ferrous ions Chelation Capacity (%) ([3]; 20.59 µg/mL): - (- represents less than 5%)
- Ferrous ions Chelation Capacity (%) ([3]; 29.41 µg/mL): - (- represents less than 5%)
- Ferrous ions Chelation Capacity (%) ([3]; 44.11 µg/mL): - (- represents less than 5%)
- Ferrous ions Chelation Capacity (%) ([3]; 58.82 µg/mL): - (- represents less than 5%)
- Ferrous ions Chelation Capacity (%) ([3]; 88.23 µg/mL): - (- represents less than 5%)
- Ferrous ions Chelation Capacity (%) ([3]; 117.64 µg/mL): - (- represents less than 5%)
- Ferrous ions Chelation Capacity (%) ([3]; 257.46 µg/mL): 19.02%
- Ferrous ions Chelation Capacity (%) ([3]; 343.28 µg/mL): 35.16%
- IC50 [4]: 7.6 µM
- IC50 (DPPH˙ scavenging) [4]: 3.62 µg/mL (≈ 7.6 µM)
- % of DPPH˙ Scavenging ([4]; 1.25 µg/mL): 37.55%
- % of DPPH˙ Scavenging ([4]; 2.5 µg/mL): 45.21%
- % of DPPH˙ Scavenging ([4]; 3.75 µg/mL): 51.00%
- % of DPPH˙ Scavenging ([4]; 5 µg/mL): 56.36%
- % of DPPH˙ Scavenging ([4]; 7.5 µg/mL): 69.66%
- % of DPPH˙ Scavenging ([4]; 10 µg/mL): 81.12%
- % of DPPH˙ Scavenging ([4]; 12.5 µg/mL): + (+ represents more than 95%)
- % of DPPH˙ Scavenging ([4]; 15 µg/mL): + (+ represents more than 95%)
- Cupric ions Chelation Capacity (%) ([5]; 3.36 µg/mL): 11.17%
- Cupric ions Chelation Capacity (%) ([5]; 8.40 µg/mL): 25.27%
- Cupric ions Chelation Capacity (%) ([5]; 16.80 µg/mL): 40.20%

Structure (SMILES): CCCCn1c(SCC(=O)NN=Cc2ccc(O)c(O)c2O)nc2ccccc2c1=O [Compound 5d, 2-((3-Butyl-4-oxo-3,4-dihydroquinazolin-2-yl)thio)-N’-(2,3,4-trihydroxybenzylidene)acetohydrazide]
- CUPRAC, % of Activity of Trolox [1]: 106.43%
- CUPRAC, % of Activity of Ascorbic Acid [1]: 111.66%
- IC50 [2]: 56.8 µg/mL
- Ferrous ions Chelation Capacity (%) ([3]; 17.70 µg/mL): - (- represents less than 5%)
- Ferrous ions Chelation Capacity (%) ([3]; 20.59 µg/mL): - (- represents less than 5%)
- Ferrous ions Chelation Capacity (%) ([3]; 29.41 µg/mL): - (- represents less than 5%)
- Ferrous ions Chelation Capacity (%) ([3]; 44.11 µg/mL): - (- represents less than 5%)
- Ferrous ions Chelation Capacity (%) ([3]; 58.82 µg/mL): - (- represents less than 5%)
- Ferrous ions Chelation Capacity (%) ([3]; 88.23 µg/mL): - (- represents less than 5%)
- Ferrous ions Chelation Capacity (%) ([3]; 117.64 µg/mL): 58.18%
- Ferrous ions Chelation Capacity (%) ([3]; 257.46 µg/mL): 71.56%
- Ferrous ions Chelation Capacity (%) ([3]; 343.28 µg/mL): 80.50%
- IC50 [4]: 4.93 µM
- IC50 (DPPH˙ scavenging) [4]: 2.18 µg/mL (≈ 4.93 µM)
- % of DPPH˙ Scavenging ([4]; 1.25 µg/mL): 41.12%
- % of DPPH˙ Scavenging ([4]; 2.5 µg/mL): 53.03%
- % of DPPH˙ Scavenging ([4]; 3.75 µg/mL): 63.53%
- % of DPPH˙ Scavenging ([4]; 5 µg/mL): 71.70%
- % of DPPH˙ Scavenging ([4]; 7.5 µg/mL): 87.99%
- % of DPPH˙ Scavenging ([4]; 10 µg/mL): + (+ represents more than 95%)
- % of DPPH˙ Scavenging ([4]; 12.5 µg/mL): + (+ represents more than 95%)
- % of DPPH˙ Scavenging ([4]; 15 µg/mL): + (+ represents more than 95%)
- Cupric ions Chelation Capacity (%) ([5]; 3.36 µg/mL): 14.19%
- Cupric ions Chelation Capacity (%) ([5]; 8.40 µg/mL): 28.04%
- Cupric ions Chelation Capacity (%) ([5]; 16.80 µg/mL): 41.42%
